The results in this text go back to PubChem BioAssay AID588645 (Sanford-Burnham Center for Chemical Genomics, 2011).

SMILES strings stand for the structures. The source made the active and inactive calls. The rule behind the calls is not given here. Some results are limits rather than exact numbers.

This assay has as its target Intestinal-type alkaline phosphatase (Homo sapiens) (UniProt P09923). Briefly: inhibition of human intestinal alkaline phosphatase – biochemical, set 2, mouse IAP inhibitor project, SAR follow-up (AID 588645). The note with it: human intestinal alkaline phosphatase enzymatic inhibition assay.

Intestinal-type alkaline phosphatase (Homo sapiens), sequence (P09923 whole entry, looked up): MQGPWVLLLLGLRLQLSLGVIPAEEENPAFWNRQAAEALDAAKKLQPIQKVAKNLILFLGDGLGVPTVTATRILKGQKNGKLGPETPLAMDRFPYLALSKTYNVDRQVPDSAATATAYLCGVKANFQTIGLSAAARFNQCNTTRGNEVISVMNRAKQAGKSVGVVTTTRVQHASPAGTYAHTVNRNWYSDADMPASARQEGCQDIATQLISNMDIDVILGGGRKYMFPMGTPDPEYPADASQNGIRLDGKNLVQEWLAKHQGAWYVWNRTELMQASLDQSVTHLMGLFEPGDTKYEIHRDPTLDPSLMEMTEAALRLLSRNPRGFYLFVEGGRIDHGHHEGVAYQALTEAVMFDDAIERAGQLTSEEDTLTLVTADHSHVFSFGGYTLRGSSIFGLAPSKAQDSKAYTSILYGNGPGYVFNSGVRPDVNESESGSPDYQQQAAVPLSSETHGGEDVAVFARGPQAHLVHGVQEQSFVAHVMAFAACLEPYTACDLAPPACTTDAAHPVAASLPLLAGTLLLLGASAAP

One may read the IC50 as the concentration that gives 50% inhibition. In the case of `Cc1ccc(C)c(NC(=O)CCNS(=O)(=O)c2ccc3[nH]c(=O)oc3c2)c1`, the IC50 was > 100 µM (inactive).

Take `COc1ccc(NC(=O)CCNS(=O)(=O)c2ccc3[nH]c(=O)oc3c2)cc1OC`: the IC50 is > 100 µM (inactive).

Regarding `CN(C)c1ccc(CNC(=O)C2CCCN(S(=O)(=O)c3ccc4[nH]c(=O)oc4c3)C2)cc1` (stereo unspecified), the IC50 is > 100 µM (inactive).

On to `N#Cc1cccc(NS(=O)(=O)c2ccc3[nH]c(=O)oc3c2)c1`, for which the IC50 is > 100 µM (inactive).

On to `CCOc1cc(C(=O)N/N=C/c2ccccc2F)cc(OCC)c1OCC`, for which the IC50 was > 100 µM (inactive).

`O=C(NN=Cc1ccccc1F)c1ccc(O)cc1`: the IC50 is > 100 µM (inactive).

For `COc1ccc(CNC(=O)CCNS(=O)(=O)c2ccc3[nH]c(=O)oc3c2)cc1`, the IC50 is > 100 µM (inactive).

As for `COc1ccc(NS(=O)(=O)c2ccc3[nH]c(=O)oc3c2)cc1OC`, the IC50 is > 100 µM (inactive).

In the case of `O=C(N/N=C/c1c(F)cccc1Cl)c1ccc(O)cc1O`, the IC50 was > 100 µM (inactive).

Regarding `COc1ccc(CCNC(=O)CCCNS(=O)(=O)c2ccc3[nH]c(=O)oc3c2)cc1`, the IC50 was > 100 µM (inactive).

For the molecule `Cc1ccccc1CNC(=O)CCCNS(=O)(=O)c1ccc2[nH]c(=O)oc2c1`, the IC50 is > 100 µM (inactive).

In the case of `O=C(N/N=C/c1c(F)cccc1Cl)c1cc(O)c(O)c(O)c1`, the IC50 is > 100 µM (inactive).

As for `Cc1ccccc1CNC(=O)C1CCCN(S(=O)(=O)c2ccc3[nH]c(=O)oc3c2)C1` (stereo unspecified), the IC50 was > 100 µM (inactive).

Consider `O=C(CCNS(=O)(=O)c1ccc2[nH]c(=O)oc2c1)NCc1ccc(Cl)cc1`, for which the IC50 was > 100 µM (inactive).

Consider `COc1ccc(OC)c(NC(=O)C2CCCN(S(=O)(=O)c3ccc4c(c3)oc(=O)n4C)C2)c1` (stereo unspecified), for which the IC50 is > 100 µM (inactive).

Turning to `O=C(CCNS(=O)(=O)c1ccc2[nH]c(=O)oc2c1)NCc1ccccc1Cl`, the IC50 is > 100 µM (inactive).

Turning to `COc1ccc(OC)c(NC(=O)CCNS(=O)(=O)c2ccc3c(c2)oc(=O)n3C)c1`, the IC50 was > 100 µM (inactive).

`O=C(CCNS(=O)(=O)c1ccc2[nH]c(=O)oc2c1)NCCc1ccc2c(c1)OCO2`: the IC50 was > 100 µM (inactive).

For the molecule `O=C(CCNS(=O)(=O)c1ccc2[nH]c(=O)oc2c1)NCc1cccc(C(F)(F)F)c1`, the IC50 is > 100 µM (inactive).

Take `O=C(CCCNS(=O)(=O)c1ccc2[nH]c(=O)oc2c1)NCCc1ccc(O)cc1`: the IC50 is > 100 µM (inactive).

For `CC(=NNC(=O)c1ccccc1OCCOc1ccccc1)c1ccccc1F`, the IC50 is > 100 µM (inactive).

Regarding `COc1ccc(CNC(=O)CNS(=O)(=O)c2ccc3[nH]c(=O)oc3c2)cc1`, the IC50 is > 100 µM (inactive).

With `CC(C)c1ccc(NC(=O)CCNS(=O)(=O)c2ccc3c(c2)oc(=O)n3C)cc1`, the IC50 is > 100 µM (inactive).

As to `Cc1ccc(NC(=O)CCNS(=O)(=O)c2ccc3[nH]c(=O)oc3c2)cc1C`, the IC50 was > 100 µM (inactive).

Take `COc1ccc(NC(=O)CCCNS(=O)(=O)c2ccc3[nH]c(=O)oc3c2)c(OC)c1`: the IC50 is > 100 µM (inactive).

For `COc1ccc(NC(=O)CCNS(=O)(=O)c2ccc3ccccc3c2)cc1OC`, the IC50 was > 100 µM (inactive).

Regarding `CC(C)Oc1ccc(CNC(=O)C2CCCN(S(=O)(=O)c3ccc4[nH]c(=O)oc4c3)C2)cc1` (stereo unspecified), the IC50 is > 100 µM (inactive).

With `COc1ccc(/C=N\NC(=O)c2cc(O)c(O)c(O)c2)cc1CN1CCN(c2ccc(F)cc2)CC1`, the IC50 was > 100 µM (inactive).

`CC(C)(C)c1ccc(/C=N/NC(=O)c2cc(O)c(O)c(O)c2)cc1`: the IC50 is > 100 µM (inactive).

As to `O=C(CCNS(=O)(=O)c1ccc2[nH]c(=O)oc2c1)NCCc1ccc(O)cc1`, the IC50 is > 100 µM (inactive).

In the case of `Cc1ccc(NC(=O)CCNS(=O)(=O)c2ccc3c(c2)oc(=O)n3C)c(C)c1`, the IC50 is > 100 µM (inactive).

`Cc1ccc(C)c(NC(=O)CCNS(=O)(=O)c2ccc3ccccc3c2)c1`: the IC50 is > 100 µM (inactive).

As to `COc1cccc(CNC(=O)CNS(=O)(=O)c2ccc3[nH]c(=O)oc3c2)c1`, the IC50 is > 100 µM (inactive).

For the molecule `COc1ccccc1CNC(=O)CCCNS(=O)(=O)c1ccc2[nH]c(=O)oc2c1`, the IC50 is > 100 µM (inactive).

Consider `COc1ccc(CNC(=O)CCCNS(=O)(=O)c2ccc3[nH]c(=O)oc3c2)c(OC)c1`, for which the IC50 was > 100 µM (inactive).

Turning to `O=C(N/N=C/c1ccccc1C(F)(F)F)c1cc(O)c(O)c(O)c1`, the IC50 was > 100 µM (inactive).
